Measured values reported in ChEMBL document CHEMBL3745707 (Bioorg Med Chem, 2016).

How the values were obtained:
K562 = assay: cells; type: functional, cell-based; conditions: Homo sapiens, K562, 72 h
cells = type: functional, cell-based; conditions: Homo sapiens, DU-145, 72 h

Compound | IC50 (K562) | IC50 (cells)
Cn1c(=O)c(S(=O)(=O)c2ccc(F)cc2F)cc2cnc(NCc3ccc4[nH]ccc4c3)nc21 | 75 µM | 100 µM
Cn1c(=O)c(S(=O)(=O)c2ccc(F)cc2[N+](=O)[O-])cc2cnc(Nc3ccc4[nH]ccc4c3)nc21 | 0.9 µM | 1.5 µM
Cc1ccc(S(=O)(=O)c2cc3cnc(Nc4ccc5ncccc5c4)nc3n(C)c2=O)cc1 | 10 µM | 10 µM
CCn1c(=O)c(S(=O)(=O)c2ccc(F)cc2F)cc2cnc(Nc3ccc4[nH]ccc4c3)nc21 | 0.75 µM | 0.75 µM
Cn1c(=O)c(S(=O)(=O)c2ccc(F)cc2F)cc2cnc(Nc3ccc4c(c3)C(=O)C(=O)N4)nc21 | 30 µM | 75 µM
CN1CCN(c2ccc(Nc3ncc4cc(S(=O)(=O)c5ccc(F)cc5F)c(=O)n(C)c4n3)cc2)CC1 | 5 µM | 5 µM
Cn1c(=O)c(S(=O)(=O)c2ccc(F)cc2F)cc2cnc(Nc3ccc4cc[nH]c4c3)nc21 | 5 µM | 5 µM
Cn1c(=O)c(S(=O)(=O)c2ccccc2)cc2cnc(Nc3ccc4cc[nH]c4c3)nc21 | 10 µM | 10 µM
Cn1c(=O)c(S(=O)(=O)c2ccccc2)cc2cnc(Nc3cnc4[nH]ccc4c3)nc21 | 5 µM | 1 µM
CCCn1c(=O)c(S(=O)(=O)c2ccc(F)cc2F)cc2cnc(Nc3ccc4[nH]ccc4c3)nc21 | 1 µM | 1 µM
Cn1c(=O)c(S(=O)(=O)Cc2ccc(F)cc2F)cc2cnc(Nc3ccc4[nH]ccc4c3)nc21 | 1 µM | 1 µM
COC(=O)Cn1ccc2cc(Nc3ncc4cc(S(=O)(=O)c5ccc(F)cc5F)c(=O)n(C)c4n3)ccc21 | 5 µM | 5 µM
Cn1c(=O)c(S(=O)(=O)c2ccc(F)cc2F)cc2cnc(Nc3ccc4cccc(O)c4n3)nc21 | 5 µM | 5 µM
O=c1c(S(=O)(=O)c2ccc(F)cc2F)cc2cnc(Nc3ccc4[nH]ccc4c3)nc2n1C1CCCCC1 | 10 µM | 10 µM
O=c1c(S(=O)(=O)c2ccc(F)cc2F)cc2cnc(Nc3ccc4[nH]ccc4c3)nc2n1C1CC1 | 0.5 µM | 0.5 µM
O=c1c(S(=O)(=O)c2ccc(F)cc2F)cc2cnc(Nc3ccc4[nH]ccc4c3)nc2n1CC1CCCC1 | 7 µM | 10 µM
Cc1ccc(S(=O)(=O)c2cc3cnc(Nc4cccc5[nH]ccc45)nc3n(C)c2=O)cc1 | 5 µM | 10 µM
O=c1[nH]c2nc(Nc3ccc4[nH]ccc4c3)ncc2cc1S(=O)(=O)c1ccc(F)cc1F | 15 µM | 15 µM
Cn1c(=O)c(S(=O)(=O)c2ccc(F)cc2F)cc2cnc(Nc3ccc4[nH]c(C(=O)O)cc4c3)nc21 | 10 µM | 10 µM
Cn1ccc2cc(Nc3ncc4cc(S(=O)(=O)c5ccc(Cl)cc5Cl)c(=O)n(C)c4n3)ccc21 | 0.75 µM | 0.75 µM
Cn1c(=O)c(S(=O)(=O)c2ccc(F)cc2N)cc2cnc(Nc3ccc4[nH]ccc4c3)nc21 | 2 µM | 3 µM
Cn1c(=O)c(S(=O)(=O)c2ccc(Cl)cc2)cc2cnc(Nc3cccc4[nH]ccc34)nc21 | 5 µM | 5 µM
Cn1c(=O)c(S(=O)(=O)c2ccc(F)cc2F)cc2cnc(Nc3ccc4sccc4c3)nc21 | 0.5 µM | 0.5 µM
Cn1c(=O)c(S(=O)(=O)c2ccc(Cl)cc2)cc2cnc(Nc3ccc(Cl)cc3)nc21 | 15 µM | 15 µM
Cc1ccc(S(=O)(=O)c2cc3cnc(Nc4cnc5[nH]ccc5c4)nc3n(C)c2=O)cc1 | 15 µM | 25 µM
Cn1c(=O)c(S(=O)(=O)c2ccc(F)cc2F)cc2cnc(Nc3ccc4occc4c3)nc21 | 15 µM | 15 µM
Cn1c(=O)c(S(=O)(=O)c2ccccc2)cc2cnc(Nc3ccc4ncccc4c3)nc21 | 100 µM | 50 µM
Cc1ccc(S(=O)(=O)c2cc3cnc(Nc4ccc5cc[nH]c5c4)nc3n(C)c2=O)cc1 | 15 µM | 15 µM
Cn1c(=O)c(S(=O)(=O)c2ccc(C(=O)O)cc2)cc2cnc(Nc3ccc4[nH]ccc4c3)nc21 | 5 µM | 10 µM
